Test results published in the supplement of paper PMC4862054.

How the values were obtained:
Conditions in all cases: incubation time: 72 h
[1] = system: HCC1937; assay: normalised response (% of control), CellTox Green; higher = less cell death (100 = DMSO, 0 = benzethonium chloride kill control)
Method in brief: (§1)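 The table gives the normalised signal for a single concentration in each entry. Breast cancer cell lines were seeded (20 µl suspension) into 384-well plates holding compound at 5 concentrations in 10-fold steps over a compound-specific 10,000-fold range and incubated 72 h, then read for CellTox Green fluorescence (485/520 nm) and CellTiter-Glo luminescence. Normalisation on each plate used 0.1 % DMSO (100) and a positive kill control (0).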

[2] = system: MDA-MB-436; assay: as above
Method in brief: as §1

[3] = system: MCF-10A; assay: as above
Method in brief: as §1

[4] = system: CAL-51; assay: as above
Method in brief: as §1

[5] = system: MDA-MB-231; assay: as above
Method in brief: as §1

[6] = system: BT-474; assay: as above
Method in brief: as §1

[7] = system: CAL-120; assay: as above
Method in brief: as §1

[8] = system: DU-4475; assay: as above
Method in brief: as §1

[9] = system: Hs578T; assay: as above
Method in brief: as §1

[10] = system: MDA-MB-468; assay: as above
Method in brief: as §1

[11] = system: BT-549; assay: as above
Method in brief: as §1

[12] = system: MFM-223; assay: as above
Method in brief: as §1

[13] = system: MDA-MB-453; assay: as above
Method in brief: as §1

[14] = system: CAL-85-1; assay: as above
Method in brief: as §1

[15] = system: CAL-148; assay: as above
Method in brief: as §1

[16] = system: HDQ-P1; assay: as above
Method in brief: as §1

[17] = system: HCC1599; assay: as above
Method in brief: as §1

[18] = system: HCC1937; assay: normalised response (% of control), CellTiter-Glo; higher = more viable cells (100 = DMSO, 0 = benzethonium chloride kill control)
Description: (§2)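 DSRT, 72 h incubation, CellTox Green / CellTiter-Glo readout. Signal is normalised to DMSO and benzethonium chloride controls. Value is the normalised response at the highest dose.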

[19] = system: MDA-MB-436; assay: as above
Description: as §2

[20] = system: MCF-10A; assay: as above
Description: as §2

[21] = system: CAL-51; assay: as above
Description: as §2

[22] = system: MDA-MB-231; assay: as above
Description: as §2

[23] = system: SK-BR-3; assay: as above
Description: as §2

[24] = system: BT-474; assay: as above
Description: as §2

[25] = system: HCC1143; assay: as above
Description: as §2

[26] = system: CAL-120; assay: as above
Description: as §2

[27] = system: DU-4475; assay: as above
Description: as §2

[28] = system: Hs578T; assay: as above
Description: as §2

[29] = system: MDA-MB-468; assay: as above
Description: as §2

[30] = system: BT-549; assay: as above
Description: as §2

[31] = system: MFM-223; assay: as above
Description: as §2

[32] = system: MDA-MB-453; assay: as above
Description: as §2

[33] = system: CAL-85-1; assay: as above
Description: as §2

[34] = system: CAL-148; assay: as above
Description: as §2

[35] = system: HDQ-P1; assay: as above
Description: as §2

[36] = system: HCC1599; assay: as above
Description: as §2

[37] = system: HCC1143; assay: normalised response (% of control), CellTox Green; higher = less cell death (100 = DMSO, 0 = benzethonium chloride kill control)
Method in brief: as §1

[38] = system: HCC1937; assay: normalised response (% of control), CellTiter-Glo; higher = more viable cells (100 = DMSO, 0 = benzethonium chloride kill control); remark: listed apart in the source
Method in brief: as §1

[39] = system: MDA-MB-436; assay: as above; remark: listed apart in the source
Method in brief: as §1

[40] = system: MCF-10A; assay: as above; remark: listed apart in the source
Method in brief: as §1

[41] = system: CAL-51; assay: as above; remark: listed apart in the source
Method in brief: as §1

[42] = system: MDA-MB-231; assay: as above; remark: listed apart in the source
Method in brief: as §1

[43] = system: SK-BR-3; assay: as above; remark: listed apart in the source
Method in brief: as §1

[44] = system: BT-474; assay: as above; remark: listed apart in the source
Method in brief: as §1

[45] = system: HCC1143; assay: as above; remark: listed apart in the source
Method in brief: as §1

[46] = system: CAL-120; assay: as above; remark: listed apart in the source
Method in brief: as §1

[47] = system: DU-4475; assay: as above; remark: listed apart in the source
Method in brief: as §1

[48] = system: Hs578T; assay: as above; remark: listed apart in the source
Method in brief: as §1

[49] = system: MDA-MB-468; assay: as above; remark: listed apart in the source
Method in brief: as §1

[50] = system: BT-549; assay: as above; remark: listed apart in the source
Method in brief: as §1

[51] = system: MFM-223; assay: as above; remark: listed apart in the source
Method in brief: as §1

[52] = system: MDA-MB-453; assay: as above; remark: listed apart in the source
Method in brief: as §1

[53] = system: CAL-85-1; assay: as above; remark: listed apart in the source
Method in brief: as §1

[54] = system: CAL-148; assay: as above; remark: listed apart in the source
Method in brief: as §1

[55] = system: HDQ-P1; assay: as above; remark: listed apart in the source
Method in brief: as §1

[56] = system: HCC1599; assay: as above; remark: listed apart in the source
Method in brief: as §1

Compound: O=C(O)C1(C(=O)O)CCC1.[NH2-].[NH2-].[Pt+2] [Carboplatin] (10000 nM)
- normalised response [1]: 101%
- normalised response [2]: 99.8%
- normalised response [3]: 117%
- normalised response [4]: 97.1%
- normalised response [5]: 103%
- normalised response [6]: 106%
- normalised response [7]: 103%
- normalised response [8]: 99.8%
- normalised response [9]: 135%
- normalised response [10]: 108%
- normalised response [11]: 88.1%
- normalised response [12]: 94%
- normalised response [13]: 94.3%
- normalised response [14]: 99.3%
- normalised response [15]: 97.8%
- normalised response [16]: 80.6%
- normalised response [17]: 100%
- normalised response [18]: 89.2%
- normalised response [19]: 92.5%
- normalised response [20]: 99.2%
- normalised response [21]: 114%
- normalised response [22]: 96.9%
- normalised response [23]: 92.8%
- normalised response [24]: 98.8%
- normalised response [25]: 103%
- normalised response [26]: 101%
- normalised response [27]: 96.9%
- normalised response [28]: 99.3%
- normalised response [29]: 92.4%
- normalised response [30]: 103%
- normalised response [31]: 102%
- normalised response [32]: 95.8%
- normalised response [33]: 96.4%
- normalised response [34]: 103%
- normalised response [35]: 101%
- normalised response [36]: 108%

Compound: O=C(O)C(=O)O.[NH-][C@@H]1CCCC[C@H]1[NH-].[Pt+2] [Oxaliplatin] (10000 nM)
- normalised response [1]: 92.8%
- normalised response [2]: 62%
- normalised response [4]: 79.2%
- normalised response [5]: 93.5%
- normalised response [6]: 96.6%
- normalised response [37]: 68.5%
- normalised response [7]: 99.1%
- normalised response [8]: 96.8%
- normalised response [9]: 107%
- normalised response [10]: 124%
- normalised response [11]: 108%
- normalised response [12]: 93%
- normalised response [13]: 98.6%
- normalised response [14]: 128%
- normalised response [17]: 98.3%
- normalised response [18]: 98.4%
- normalised response [19]: 98.4%
- normalised response [20]: 86.4%
- normalised response [21]: 91.5%
- normalised response [22]: 91.5%
- normalised response [23]: 91.9%
- normalised response [24]: 100%
- normalised response [25]: 99.8%
- normalised response [26]: 106%
- normalised response [27]: 86.5%
- normalised response [28]: 97%
- normalised response [29]: 97.2%
- normalised response [30]: 101%
- normalised response [31]: 86.9%
- normalised response [32]: 89.5%
- normalised response [33]: 102%
- normalised response [34]: 85.5%
- normalised response [35]: 102%
- normalised response [36]: 97.3%

Compound: C=CCc1cccc(/C=N/NC(=O)CN2CCN(Cc3ccccc3)CC2)c1O [PAC-1] (100 nM)
- normalised response [1]: 105%
- normalised response [2]: 83.5%
- normalised response [3]: 75.2%
- normalised response [4]: 98.2%
- normalised response [5]: 116%
- normalised response [6]: 103%
- normalised response [37]: 110%
- normalised response [7]: 106%
- normalised response [8]: 102%
- normalised response [9]: 84.3%
- normalised response [10]: 79.1%
- normalised response [11]: 101%
- normalised response [12]: 98.7%
- normalised response [13]: 107%
- normalised response [14]: 99.7%
- normalised response [15]: 107%
- normalised response [16]: 100%
- normalised response [17]: 99.4%
- normalised response [38]: 97.1%
- normalised response [39]: 99.3%
- normalised response [40]: 111%
- normalised response [41]: 91.8%
- normalised response [42]: 107%
- normalised response [43]: 108%
- normalised response [44]: 102%
- normalised response [45]: 101%
- normalised response [46]: 103%
- normalised response [47]: 105%
- normalised response [48]: 104%
- normalised response [49]: 99.4%
- normalised response [50]: 104%
- normalised response [51]: 102%
- normalised response [52]: 102%
- normalised response [53]: 103%
- normalised response [54]: 103%
- normalised response [55]: 99.6%
- normalised response [56]: 118%

Compound: CNC(=O)c1cc(Oc2ccc(NC(=O)Nc3cc(C(C)(C)C)nn3-c3ccc4ncccc4c3)c(F)c2)ccn1 [Rebastinib] (10 nM)
- normalised response [1]: 94.3%
- normalised response [2]: 85%
- normalised response [3]: 95.4%
- normalised response [4]: 101%
- normalised response [5]: 105%
- normalised response [6]: 98.3%
- normalised response [37]: 86.8%
- normalised response [7]: 101%
- normalised response [8]: 101%
- normalised response [9]: 106%
- normalised response [10]: 70.1%
- normalised response [11]: 107%
- normalised response [12]: 103%
- normalised response [13]: 98.2%
- normalised response [14]: 113%
- normalised response [15]: 84.8%
- normalised response [16]: 57%
- normalised response [17]: 98.2%
- normalised response [38]: 102%
- normalised response [39]: 106%
- normalised response [40]: 114%
- normalised response [41]: 90.6%
- normalised response [42]: 92%
- normalised response [43]: 101%
- normalised response [44]: 102%
- normalised response [45]: 104%
- normalised response [46]: 105%
- normalised response [47]: 109%
- normalised response [48]: 104%
- normalised response [49]: 94.7%
- normalised response [50]: 109%
- normalised response [51]: 96.8%
- normalised response [52]: 97.1%
- normalised response [53]: 98.7%
- normalised response [54]: 105%
- normalised response [55]: 107%
- normalised response [56]: 98.3%

Compound: CNC(=O)c1cc(Oc2ccc(NC(=O)Nc3cc(C(C)(C)C)nn3-c3ccc4ncccc4c3)c(F)c2)ccn1 [Rebastinib] (1000 nM)
- normalised response [1]: 107%
- normalised response [2]: 85.7%
- normalised response [3]: 101%
- normalised response [4]: 99.7%
- normalised response [5]: 102%
- normalised response [6]: 89.2%
- normalised response [37]: 115%
- normalised response [7]: 85.9%
- normalised response [8]: 99.7%
- normalised response [9]: 106%
- normalised response [10]: 64%
- normalised response [11]: 77.5%
- normalised response [12]: 101%
- normalised response [13]: 104%
- normalised response [15]: 101%
- normalised response [17]: 100%
- normalised response [18]: 99.8%
- normalised response [19]: 112%
- normalised response [20]: 102%
- normalised response [21]: 74.1%
- normalised response [22]: 77.8%
- normalised response [23]: 92.1%
- normalised response [24]: 81.6%
- normalised response [25]: 102%
- normalised response [26]: 69.2%
- normalised response [27]: 96.7%
- normalised response [28]: 116%
- normalised response [29]: 102%
- normalised response [30]: 71.3%
- normalised response [31]: 62.2%
- normalised response [32]: 111%
- normalised response [33]: 87.5%
- normalised response [34]: 118%
- normalised response [35]: 95.7%
- normalised response [36]: 102%
